Measurements as given in patent US20110105509A1 (Wyeth, LLC, priority 2009, published 2011).

Each molecule was assayed against T1, CRTH2 (Homo sapiens, UniProt Q9Y5Y4) (assay: FRET based competitive immunoassay (cAMP) in CRTH2 expressing CHO cells). Details: CRTH2 expressing CHO cells incubated with forskolin and PGD2; Eu3+ cryptate-labeled anti-cAMP and d2-labeled cAMP.
T1 construct: expressed in transfected cells; host or cells: CHO cells
T1 sequence (Q9Y5Y4 1-395): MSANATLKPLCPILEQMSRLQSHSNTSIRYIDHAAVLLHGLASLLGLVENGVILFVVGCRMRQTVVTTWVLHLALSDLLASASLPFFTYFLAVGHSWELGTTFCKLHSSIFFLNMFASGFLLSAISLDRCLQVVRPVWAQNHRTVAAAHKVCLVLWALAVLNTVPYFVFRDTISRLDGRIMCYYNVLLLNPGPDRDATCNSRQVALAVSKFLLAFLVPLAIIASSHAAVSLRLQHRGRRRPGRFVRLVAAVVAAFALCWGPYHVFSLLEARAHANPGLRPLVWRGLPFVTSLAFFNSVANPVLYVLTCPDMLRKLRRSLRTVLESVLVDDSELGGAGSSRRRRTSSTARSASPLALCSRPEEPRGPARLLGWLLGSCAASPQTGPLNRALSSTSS
Assay type: cell-based
Description: FRET Assay: To evaluate potency compounds were tested in a FRET based competitive immunoassay in which CRTH2 expressing CHO cells were incubated in the presence of forskolin and PGD2 along with Eu3+ cryptate-labeled anti-cAMP and d2-labeled cAMP.
`Cc1c(-c2ccc(=O)n(Cc3ccc(Cl)cc3)n2)c2cc(F)ccc2n1CC(=O)O` [Example 13, 2-(3-(1-(4-Chlorobenzyl)-6-oxo-1,6-dihydropyridazin-3-yl)-5-fluoro-2-methyl-1H-indol-1-yl)acetic acid] gave an IC50 of 5 nM. Work on `CC(=O)Nc1cccc2c1c(Cc1ccc(=O)n(Cc3ccc(F)cc3F)n1)c(C)n2CC(=O)O` [Example 55, 2-(4-Acetamido-3-((1-(2,4-difluorobenzyl)-6-oxo-1,6-dihydropyridazin-3-yl)-methyl)-2-methyl-1H-indol-1-yl)acetic acid] yielded an IC50 of over 2000 nM. `Cc1c(-c2nn(CCC(C)(C)O)c(=O)c3ccccc23)c2cc(F)ccc2n1CC(=O)O` [Example 132, 2-(5-fluoro-3-(3-(3-hydroxy-3-methylbutyl)-4-oxo-3,4-dihydrophthalazin-1-yl)-2-methyl-1H-indol-1-yl)acetic acid] showed an IC50 of 75 nM. `Cc1c(Cc2ccc(=O)n(Cc3ccccc3)n2)c2cc(F)ccc2n1CC(=O)O` [Example 337, {3-[(1-benzyl-6-oxo-1,6-dihydropyridazin-3-yl)methyl]-5-fluoro-2-methyl-1H-indol-1-yl}acetic acid] showed an IC50 of 10 nM. `Cc1c(-c2cn(Cc3ccccc3)c(=O)c3ccccc23)c2cc(F)ccc2n1CC(=O)O` [Example 248, 2-(3-(2-benzyl-1-oxo-1,2-dihydroisoquinolin-4-yl)-5-fluoro-2-methyl-1H-indol-1-yl)acetic acid] showed an IC50 of 15 nM. Molecule `Cc1c(-c2ccc(=O)n(C(C)C)n2)c2cc(F)cc(Cl)c2n1CC(=O)O` [Example 232, 2-(7-chloro-5-fluoro-3-(1-isopropyl-6-oxo-1,6-dihydropyridazin-3-yl)-2-methyl-1H-indol-1-yl)acetic acid] has an IC50 of 1080 nM. `Cc1c(Cc2ccc(=O)n(Cc3ccccc3)c2)c2cc(F)ccc2n1CC(=O)O` [Example 346, {3-[(1-benzyl-6-oxo-1,6-dihydropyridin-3-yl)methyl]-5-fluoro-2-methyl-1H-indol-1-yl}acetic acid] was tested, and the IC50 was 11 nM. `Cc1c(-c2nn(-c3cccc(C(F)(F)F)c3)c(=O)c3ccccc23)c2cc(F)ccc2n1CC(=O)O` [Example 207, 2-(5-fluoro-2-methyl-3-(4-oxo-3-(3-(trifluoromethyl)phenyl)-3,4-dihydrophthalazin-1-yl)-1H-indol-1-yl)acetic acid] showed an IC50 of 588 nM. With `Cc1c(-c2ccc(=O)n(Cc3c(F)cccc3F)c2)c2cc(Cl)ccc2n1CC(=O)O` [Example 291, 2-(5-chloro-3-(1-(2,6-difluorobenzyl)-6-oxo-1,6-dihydropyridin-3-yl)-2-methyl-1H-indol-1-yl)acetic acid] the IC50 was 8 nM. For `Cc1nnc(Cn2nc(-c3c(C)n(CC(=O)O)c4ccc(Cl)cc34)c3ccccc3c2=O)[nH]1` [Example 259b, 2-(5-chloro-2-methyl-3-(3-((5-methyl-4H-1,2,4-triazol-3-yl)methyl)-4-oxo-3,4-dihydrophthalazin-1-yl)-1H-indol-1-yl)acetic acid], the IC50 was 26 nM. `Cc1c(-c2ccc(=O)n(Cc3ccc(Cl)c(F)c3)n2)c2cc(F)ccc2n1CC(=O)O` [Example 12, 2-(3-(1-(4-chloro-3-fluorobenzyl)-6-oxo-1,6-dihydropyridazin-3-yl)-5-fluoro-2-methyl-1H-indol-1-yl)acetic acid] was tested, and the IC50 was 6 nM. `Cc1c(-c2nn(Cc3nc4cc(Cl)ccc4s3)c(=O)c3ccccc23)c2cc(F)ccc2n1CC(=O)O` [Example 208, 2-(3-(3-((5-chlorobenzo[d]thiazol-2-yl)methyl)-4-oxo-3,4-dihydrophthalazin-1-yl)-5-fluoro-2-methyl-1H-indol-1-yl)acetic acid] gave an IC50 of 3 nM. In the case of `Cc1c(-c2nn(Cc3ccc(S(C)(=O)=O)cc3)c(=O)c3ccccc23)c2cc(F)ccc2n1CC(=O)O` [Example 65, 2-(5-fluoro-2-methyl-3-(3-(4-(methylsulfonyl)benzyl)-4-oxo-3,4-dihydro-phthalazin-1-yl)-1H-indol-1-yl)acetic acid], the IC50 is reported as 18 nM. `Cc1c(-c2nn(CC(N)=O)c(=O)c3ccccc23)c2cc(Cl)ccc2n1CC(=O)O` [Example 259c, 2-(3-(3-(2-amino-2-oxoethyl)-4-oxo-3,4-dihydrophthalazin-1-yl)-5-chloro-2-methyl-1H-indol-1-yl)acetic acid] was tested, and the IC50 was 23 nM. `Cc1c(Cc2ccc(=O)n(Cc3ccc(F)c(F)c3)c2)c2ccccc2n1CC(=O)O` [Example 30, 2-(3-((1-(3,4-Difluorobenzyl)-6-oxo-1,6-dihydropyridin-3-yl)methyl)-2-methyl-1H-indol-1-yl)acetic acid] gave an IC50 of 153 nM. For `Cc1c(-c2nn(Cc3ccccc3)c(=O)c3ccccc23)c2ccccc2n1Cc1nn[nH]n1` [Example 51, 4-(1-((2H-Tetrazol-5-yl)methyl)-2-methyl-1H-indol-3-yl)-2-benzyl-phthalazin-1(2H)-one], the IC50 was over 2000 nM. Work on `Cc1c(-c2ccc(=O)n(Cc3cc(F)ccc3F)n2)c2cc(F)ccc2n1CC(=O)O` [Example 72, 2-(3-(1-(2,5-Difluorobenzyl)-6-oxo-1,6-dihydropyridazin-3-yl)-5-fluoro-2-methyl-1H-indol-1-yl)acetic acid] yielded an IC50 of 43 nM. `CCC(=O)Cn1nc(-c2c(C)n(CC(=O)O)c3ccc(F)cc23)c2ccccc2c1=O` [Example 133, 2-(5-fluoro-2-methyl-3-(4-oxo-3-(2-oxobutyl)-3,4-dihydrophthalazin-1-yl)-1H-indol-1-yl)acetic acid] gave an IC50 of 8 nM. With `Cc1c(-c2cn(Cc3ccccc3)c(=O)c3ccccc23)c2cc(F)ccc2n1CC(=O)NS(C)(=O)=O` [Example 323, 2-(3-(2-benzyl-1-oxo-1,2-dihydroisoquinolin-4-yl)-5-fluoro-2-methyl-1H-indol-1-yl)-N-(methylsulfonyl)acetamide] the IC50 was 518 nM. For `Cc1c(-c2ccc(=O)n(CC(C)C)c2)c2ccccc2n1CC(=O)O` [Example 287, 2-(3-(1-isobutyl-6-oxo-1,6-dihydropyridin-3-yl)-2-methyl-1H-indol-1-yl)-acetic acid], the IC50 was 305 nM. For `Cc1c(-c2nn(Cc3c(F)cccc3F)c(=O)c3ccccc23)c2cc(Cl)ccc2n1CC(=O)O` [Example 101, 2-(5-chloro-3-(3-(2,6-difluorobenzyl)-4-oxo-3,4-dihydrophthalazin-1-yl)-2-methyl-1H-indol-1-yl)acetic acid], the IC50 was 10 nM. In the case of `Cc1c(-c2cn(C(C)C)c(=O)c3ccccc23)c2cc(F)ccc2n1CC(=O)O` [Example 249, 2-(5-fluoro-3-(2-isopropyl-1-oxo-1,2-dihydroisoquinolin-4-yl)-2-methyl-1H-indol-1-yl)acetic acid], the IC50 is reported as 5 nM. In the case of `Cc1c(-c2nn(Cc3ccc(C(F)(F)F)cc3)c(=O)c3ccccc23)c2cc(F)ccc2n1CC(=O)O` [Example 204, 2-(5-fluoro-2-methyl-3-(4-oxo-3-(4-(trifluoromethyl)benzyl)-3,4-dihydrophthalazin-1-yl)-1H-indol-1-yl)acetic acid], the IC50 is reported as 10 nM. With `Cc1c(-c2cn(CC(C)(C)C)c(=O)c3ccccc23)c2cc(F)ccc2n1CC(=O)O` [Example 257, 2-(5-fluoro-2-methyl-3-(2-neopentyl-1-oxo-1,2-dihydroisoquinolin-4-yl)-1H-indol-1-yl)acetic acid] the IC50 was 3 nM. Molecule `Cc1c(-c2ccc(=O)n(C(C)C)n2)c2cc(F)ccc2n1CC(=O)O` [Example 334, [5-fluoro-3-(1-isopropyl-6-oxo-1,6-dihydropyridazin-3-yl)-2-methyl-1H-indol-1-yl]-acetic acid] has an IC50 of 210 nM. `Cc1c(Cc2ccc(=O)n(Cc3cccc(F)c3F)c2)c2cc(F)ccc2n1CC(=O)O` [Example 28, 2-(3-((1-(2,3-Difluorobenzyl)-6-oxo-1,6-dihydropyridin-3-yl)methyl)-5-fluoro-2-methyl-1H-indol-1-yl)acetic acid] gave an IC50 of 17 nM. `Cc1c(-c2cn(CCCC(F)(F)F)c(=O)c3c2CCCC3)c2cc(F)ccc2n1CC(=O)O` [Example 89, 2-(5-fluoro-2-methyl-3-(1-oxo-2-(4,4,4-trifluorobutyl)-1,2,5,6,7,8-hexahydro-isoquinolin-4-yl)-1H-indol-1-yl)acetic acid] gave an IC50 of 123 nM. Molecule `Cc1c(-c2nn(Cc3ccccc3F)c(=O)c3ccccc23)c2cc(F)ccc2n1CC(=O)O` [Example 113, 2-(5-fluoro-3-(3-(2-fluorobenzyl)-4-oxo-3,4-dihydrophthalazin-1-yl)-2-methyl-1H-indol-1-yl)acetic acid] has an IC50 of 14 nM. With `Cc1c(-c2cn(Cc3ccc(F)cc3F)c(=O)c3c2CCCC3)c2cc(F)ccc2n1CC(=O)O` [Example 94, 2-(3-(2-(2,4-difluorobenzyl)-1-oxo-1,2,5,6,7,8-hexahydroisoquinolin-4-yl)-5-fluoro-2-methyl-1H-indol-1-yl)acetic acid] the IC50 was 119 nM. `Cc1c(-c2ccc(=O)n(Cc3cccc(F)c3F)c2)c2ccccc2n1CC(=O)O` [Example 284, 2-(3-(1-(2,3-difluorobenzyl)-6-oxo-1,6-dihydropyridin-3-yl)-2-methyl-1H-indol-1-yl)acetic acid] was tested, and the IC50 was 15 nM. Work on `Cc1c(-c2ccc(=O)n(Cc3ccccc3)c2)c2ccccc2n1CC(=O)O` [Example 263, 2-(3-(1-benzyl-6-oxo-1,6-dihydropyridin-3-yl)-2-methyl-1H-indol-1-yl)acetic acid] yielded an IC50 of 42 nM. `Cc1c(-c2cn(C(C)C)c(=O)c3ccccc23)c2ccccc2n1CC(=O)O` [Example 252, 2-(3-(2-isopropyl-1-oxo-1,2-dihydroisoquinolin-4-yl)-2-methyl-1H-indol-1-yl)acetic acid] gave an IC50 of 12 nM.
